Measured values published in patent US8318781B2, “G-protein-conjugated receptor agonist” (Japan Science and Technology Agency, priority 2007, dated 2012).

Target: T1, human GPR120 (hGPR120) (Homo sapiens, UniProt Q5NUL3)
T1 construct: expressed in transfected cells; doxycycline-inducible expression vector
T1 sequence (Q5NUL3 1-361): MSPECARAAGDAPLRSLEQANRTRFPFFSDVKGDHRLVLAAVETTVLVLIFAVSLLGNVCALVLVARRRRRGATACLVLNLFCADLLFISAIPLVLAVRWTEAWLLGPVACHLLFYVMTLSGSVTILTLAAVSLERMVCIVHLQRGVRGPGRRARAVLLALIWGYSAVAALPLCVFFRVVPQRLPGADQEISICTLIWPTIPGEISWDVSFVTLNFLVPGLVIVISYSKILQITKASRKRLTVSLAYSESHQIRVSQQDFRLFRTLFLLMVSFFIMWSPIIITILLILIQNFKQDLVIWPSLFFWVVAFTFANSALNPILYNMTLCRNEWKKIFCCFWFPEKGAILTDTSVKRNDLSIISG
Experiment: ERK assay, screening for GPR120 ligands in cell line TXGPR120;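 on ERK/GPR120 10 μM: signals normalized between DMSO and PMA controls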
Format: cell-based
Settings: for selectivity for GPR120 in ERK assay (in words): GPR120 versus GPR40; for ERK activation for GPR120 (in words) / ERK/GPR120 10 μM / ERK/GPR120 100 μM: TXGPR120 cells; for ERK activation for GPR120 (in words): FIGS. 5-8; for ERK/GPR120 10 μM: ligand 10 μM; for ERK/GPR120 10 μM / ERK/GPR120 100 μM: class relative to LA; for ERK/GPR120 100 μM: ligand 100 μM

SMILES | selectivity for GPR120 in ERK assay (in words) | ERK activation for GPR120 (in words) | ERK/GPR120 10 μM | ERK/GPR120 100 μM
O=C(O)CCCc1ccc(OCCN(c2ccccc2)c2nccs2)cc1 [NCG46] | selective for GRP120 | strongly activate ERK | +++ (+++ denotes a higher value than LA) | +++ (+++ denotes a higher value than LA)
CN(C)c1ccc(N(CCOc2ccc(CCCC(=O)O)cc2)c2ccccn2)cc1 [NCG54] | selective for GRP120 | strongly activate ERK | +++ (+++ denotes a higher value than LA) | +++ (+++ denotes a higher value than LA)
